In patent publication US8623870B2, “Pyridazinone derivatives” (Merck Patent GmbH, priority 2009, dated 2014) one finds IC50 data, which are given here for six compounds.

pIC50: −log10 of the molar value.

The target of experiment [1] is T1, Met kinase (Homo sapiens, UniProt P08581). The experiment can be described thus: Met kinase inhibition, flashplate method (enzyme). In kind it is biochemical. Also noted: 6His (N); purchased Upstate 14-526; host or cells: Sf21 insect cells (S. frugiperda), baculovirus. An excerpt: According to the manufacturer's data (Met, active, upstate, catalogue No. 14-526), Met kinase is expressed for the purposes of protein production in insect cells (Sf21; S. frugiperda) and subsequent affinity-chromatographic purification as “N-terminal 6His-tagged” recombinant human protein in a baculovirus expression vector.
The test plates used are 96-well Flashplate® microtitre plates from Perkin Elmer (Cat. No. SMP200). The components of the kinase reaction described below are pipetted into the assay plate. The Met kinase and the substrate poly Ala-Glu-Lys-Tyr, (pAGLT, 6:2:5:1), are incubated for 3 hrs at room temperature with radioactively labelled ^33P-ATP in the presence and absence of test substances in a total volume of 100 μl. The reaction is terminated using 150 μl of a 60 mM EDTA solution. After incubation for a further 30 min at room temperature, the supernatants are filtered off with suction, and the wells are washed three times with 200 μl of 0.9% NaCl solution each time. The measurement of the bound radioactivity is carried out by means of a scintillation measuring instrument (Topcount NXT, Perkin-Elmer).
The full value used is the inhibitor-free kinase reaction. This should be approximately in the range 6000-9000 cpm. The pharmacological zero value used is staurosporin in a final concentration of 0.1 mM. The inhibitory values (IC50) are determined using the RS1_MTS program.
• 30 μl of assay buffer • 10 μl of substance to be tested in assay buffer with 10% of DMSO • 10 μl of ATP (final concentration 1 μM cold, 0.35 μCi of ^33P-ATP) • 50 μl of Met kinase/substrate mixture in assay buffer; • (10 ng of enzyme/well, 50 ng of pAGLT/well)
Assay Buffer: • 50 mM HEPES • 3 mM magnesium chloride • 3 μM sodium orthovanadate • 3 mM manganese(II) chloride • 1 mM dithiothreitol (DTT) • pH=7.5 (to be set using sodium hydroxide)
Stop Solution: • 60 mM Titriplex III (EDTA) • ^33P-ATP: Perkin-Elmer; • Met kinase: Upstate, Cat. No. 14-526, Stock 1 μg/10 μl; spec. activity 954 U/mg; • Poly-Ala-Glu-Lys-Tyr, 6:2:5:1: Sigma Cat. No. P1152 In-vivo Tests
Target sequence in this assay (P08581 974-1390 limits assumed): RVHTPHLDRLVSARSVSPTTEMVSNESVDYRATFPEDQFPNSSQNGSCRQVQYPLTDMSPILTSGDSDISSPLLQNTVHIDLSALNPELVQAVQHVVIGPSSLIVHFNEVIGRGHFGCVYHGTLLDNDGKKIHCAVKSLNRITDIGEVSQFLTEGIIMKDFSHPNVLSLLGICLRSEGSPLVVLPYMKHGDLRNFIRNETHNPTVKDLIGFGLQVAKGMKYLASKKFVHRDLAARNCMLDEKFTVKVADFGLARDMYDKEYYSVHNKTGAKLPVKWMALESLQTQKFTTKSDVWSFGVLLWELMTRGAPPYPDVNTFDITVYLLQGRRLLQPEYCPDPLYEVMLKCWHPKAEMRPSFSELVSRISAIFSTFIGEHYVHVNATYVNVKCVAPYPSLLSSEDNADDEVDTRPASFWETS

Experiment [2] deals with T1, Met kinase. The experiment can be described thus: Met kinase inhibition (cell). Format: cell-based.
Target sequence in this assay (P08581 25-1390): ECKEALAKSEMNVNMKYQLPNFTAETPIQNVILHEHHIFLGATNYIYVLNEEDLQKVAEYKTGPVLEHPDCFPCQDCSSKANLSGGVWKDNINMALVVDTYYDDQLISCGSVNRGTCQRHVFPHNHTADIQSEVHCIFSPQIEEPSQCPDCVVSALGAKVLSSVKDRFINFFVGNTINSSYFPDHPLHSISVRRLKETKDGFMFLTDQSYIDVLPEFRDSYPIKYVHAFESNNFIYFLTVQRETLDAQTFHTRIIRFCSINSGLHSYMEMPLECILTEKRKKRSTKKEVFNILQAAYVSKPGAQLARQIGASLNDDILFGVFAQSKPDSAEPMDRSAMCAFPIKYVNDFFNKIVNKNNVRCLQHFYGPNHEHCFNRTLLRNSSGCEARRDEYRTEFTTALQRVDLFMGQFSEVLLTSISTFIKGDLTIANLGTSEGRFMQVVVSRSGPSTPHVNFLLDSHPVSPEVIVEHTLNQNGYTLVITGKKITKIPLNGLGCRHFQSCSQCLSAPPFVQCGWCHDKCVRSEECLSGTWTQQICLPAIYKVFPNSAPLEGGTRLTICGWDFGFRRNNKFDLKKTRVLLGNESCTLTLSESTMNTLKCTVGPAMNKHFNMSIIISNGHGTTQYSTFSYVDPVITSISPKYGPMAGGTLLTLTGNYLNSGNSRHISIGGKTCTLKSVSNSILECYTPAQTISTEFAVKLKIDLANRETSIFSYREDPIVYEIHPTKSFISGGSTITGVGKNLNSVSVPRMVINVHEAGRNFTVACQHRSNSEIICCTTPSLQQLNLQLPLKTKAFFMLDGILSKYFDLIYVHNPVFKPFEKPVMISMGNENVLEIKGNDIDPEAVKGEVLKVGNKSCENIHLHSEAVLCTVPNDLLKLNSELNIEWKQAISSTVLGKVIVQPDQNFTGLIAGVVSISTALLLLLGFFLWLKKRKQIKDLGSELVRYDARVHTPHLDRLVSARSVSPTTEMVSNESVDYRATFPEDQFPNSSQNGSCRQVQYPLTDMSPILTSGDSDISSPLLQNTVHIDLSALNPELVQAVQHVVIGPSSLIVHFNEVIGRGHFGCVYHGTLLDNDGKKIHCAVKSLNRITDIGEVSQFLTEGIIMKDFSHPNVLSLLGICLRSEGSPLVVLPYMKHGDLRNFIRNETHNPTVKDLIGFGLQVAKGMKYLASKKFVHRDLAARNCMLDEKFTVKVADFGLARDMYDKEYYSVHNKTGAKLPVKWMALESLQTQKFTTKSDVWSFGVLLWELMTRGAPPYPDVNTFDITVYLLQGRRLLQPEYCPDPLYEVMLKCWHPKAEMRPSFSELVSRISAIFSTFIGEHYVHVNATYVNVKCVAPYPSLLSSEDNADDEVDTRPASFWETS

A word on the pIC50: it is −log10 of the IC50, conventionally taken in molar units. A lower pIC50 goes with a high IC50. Consider `O=c1ccc(-c2cc(F)cc(F)c2)nn1Cc1cccc(-c2ncc(-c3cnn(C4CCNCC4)c3)s2)c1` [Compound A1, 6-(3,5-difluorophenyl)-2-{3-[5-(1-piperidin-4-yl-1H-pyrazol-4-yl)thiazol-2-yl]benzyl}-2H-pyridazin-3-one], for which the negative-log IC50 (pIC50) at Met kinase [1] and against Met kinase [2] was 7.00 to 9.00 each time.

On to `O=c1ccc(-c2cccc(F)c2)nn1Cc1cccc(-c2ncc(-c3cnn(C4CCNCC4)c3)s2)c1` [Compound A2, 6-(3-fluorophenyl)-2-{3-[5-(1-piperidin-4-yl-1H-pyrazol-4-yl)thiazol-2-yl]benzyl}-2H-pyridazin-3-one], for which the negative-log IC50 (pIC50) on Met kinase [1] and at Met kinase [2] was 7.00 to 9.00 each time.

Turning to `O=c1ccc(-c2cc(F)cc(F)c2)nn1Cc1cccc(-c2ncc(-c3cnn(C4CCNCC4)c3)o2)c1` [Compound A6, 6-(3,5-difluorophenyl)-2-{3-[5-(1-piperidin-4-yl-1H-pyrazol-4-yl)oxazol-2-yl]benzyl}-2H-pyridazin-3-one], the pIC50 at Met kinase [1] and against Met kinase [2] was 7.00 to 9.00 each time.

As for `Cn1cc(-c2nc(-c3cccc(Cn4nc(-c5cc(F)cc(F)c5)ccc4=O)c3)no2)cn1` [Compound A8, 6-(3,5-difluorophenyl)-2-{3-[5-(1-methyl-1H-pyrazol-4-yl)-1,2,4-oxadiazol-3-yl]benzyl}-2H-pyridazin-3-one], the pIC50 against Met kinase [1] and on Met kinase [2] was 7.00 to 9.00 each time.

`O=c1ccc(-c2cc(F)cc(F)c2)nn1Cc1cccc(-c2noc(-c3ccco3)n2)c1` [Compound A9, 6-(3,5-difluorophenyl)-2-[3-(5-furan-2-yl-1,2,4-oxadiazol-3-yl)benzyl]-2H-pyridazin-3-one]: the pIC50 on Met kinase [2] was 5.00 to 7.00.

As to `Cc1ccc(-c2nc(-c3cccc(Cn4nc(-c5cc(F)cc(F)c5)ccc4=O)c3)no2)cn1` [Compound A10, 6-(3,5-difluorophenyl)-2-{3-[5-(6-methylpyridin-3-yl)-1,2,4-oxadiazol-3-yl]-benzyl}-2H-pyridazin-3-one], the pIC50 against Met kinase [1] and against Met kinase [2] was 7.00 to 9.00 throughout.
